The assay concerns the target Mitogen-activated protein kinase kinase kinase 7 (TAK1) (Homo sapiens) (UniProt O43318). Nature of the assay: Inhibition of TAK1.

A value given as a limit tells only on which side of the number the result lay.

Sequence of Mitogen-activated protein kinase kinase kinase 7 (TAK1) (Homo sapiens) (O43318 whole entry, looked up): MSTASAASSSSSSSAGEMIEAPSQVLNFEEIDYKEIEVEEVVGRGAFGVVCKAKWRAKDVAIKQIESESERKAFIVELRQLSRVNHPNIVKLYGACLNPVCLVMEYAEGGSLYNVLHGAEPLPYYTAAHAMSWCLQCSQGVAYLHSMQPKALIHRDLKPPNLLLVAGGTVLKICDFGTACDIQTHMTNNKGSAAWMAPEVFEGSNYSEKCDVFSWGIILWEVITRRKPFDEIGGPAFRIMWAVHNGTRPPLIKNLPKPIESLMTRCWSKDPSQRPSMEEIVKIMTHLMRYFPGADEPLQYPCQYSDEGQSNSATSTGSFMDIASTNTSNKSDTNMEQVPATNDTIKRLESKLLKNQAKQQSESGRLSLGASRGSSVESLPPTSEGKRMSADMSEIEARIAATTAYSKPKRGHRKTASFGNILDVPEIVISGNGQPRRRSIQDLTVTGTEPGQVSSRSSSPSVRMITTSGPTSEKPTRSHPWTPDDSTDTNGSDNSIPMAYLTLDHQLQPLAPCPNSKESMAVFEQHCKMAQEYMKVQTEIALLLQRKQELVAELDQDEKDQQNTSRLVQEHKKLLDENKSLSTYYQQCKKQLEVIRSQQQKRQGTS

For orientation: IC50 means the concentration at which inhibition is half-maximal. Read a low IC50 as higher potency. For the molecule `CC(C)(C)c1ccc(C(=O)Nc2cn3cc(-n4ccnc4)ccc3n2)cc1`, the IC50 was more than 10 µM.

The values are drawn from BindingDB's records for doi:10.1016/j.bmcl.2012.10.084 (Takeda Pharmaceutical, 2012).
